# From US12285393B2, “Roles of modulators of intersectin-Cdc42 signaling in Alzheimer's disease” (priority 2017, dated 2025)
# Tests used:
# Rac1 = target: T1, Rac1 (Mus musculus, UniProt P63001); assay: G-LISA in serum-starved Swiss 3T3 cells; format: cell-based; details: 50 μM
# T1 construct: endogenous in cells; host or cells: Swiss 3T3 cells
# Cdc42 = Cdc42 (Homo sapiens, UniProt P60953); assay: Cdc42-GEF-assay, additional compound screening; format: biochemical; design: purchased Cytoskeleton Inc; details: percentages of ZCL278 activity normalized to batch; more than 100% = more potent activator; Table 9
# Cdc42, sequence (P60953 whole entry, the tested form may be a part): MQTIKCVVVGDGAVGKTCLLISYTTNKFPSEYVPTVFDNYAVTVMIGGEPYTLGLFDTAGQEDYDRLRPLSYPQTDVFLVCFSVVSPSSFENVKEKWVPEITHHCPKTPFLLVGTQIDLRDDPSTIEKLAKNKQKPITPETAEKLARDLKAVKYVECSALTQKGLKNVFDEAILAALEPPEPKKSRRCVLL
# Experimental: Rho-GEF IC50 Assay: Rho-GEF assay (Cytoskeleton Inc., Denver, Colorado, United States of America) was conducted per manufacturer's instructions (λex=360 nm, λem=460 nm). Briefly, a solution (50 μL) of purified Rho GTPase (1 μM) and mant-GTP (1.5 μM) with or without compound (0.001-500 μM) was prepared and the absorbance monitored for 10-30 min to obtain the background/baseline. The addition of purified GEF/DH domain (0.08-0.2 μM) was carried out simultaneously and the absorbance was recorded for 30-45 min. The linear slope following the addition of the GEF was calculated and expressed as percentage of the control and plotted on an IC50 curve.
# Cdc42 (1 μM) was incubated with mant-GTP (1.5 μM) and varying concentrations of ZCL278, ZCL279, or ZCL367 (5-500 μM). Fluorescent readings were taken every minute for 10 m to acquire the baseline. The GEF/DH domain (0.08-0.2 μM) was added followed by readings taken every minute for another 30 m. The linear phase was calculated from within the time period of 12-22 m. Cdc42 (1 μM) was incubated with mant-GTP (1.5 μM) and varying concentrations of ZCL278, ZCL279, or ZCL367 (5-500 μM). Fluorescent readings were taken every minute for 30 m to monitor the binding of mant-GTP in the absence of GEF/DH domain.
# Cdc42-GEF-assays were conducted on additional screening compounds in batches of 9 compounds per batch as described above in Example 2 using ZCL278 and ZCL367 as standards. Screening compounds were taken from the Specs Chemistry Database of 197,000 compounds for small molecule or the National Cancer Institute Compound Library. […] These compounds promote Cdc42-mantGTP binding without GEF. It is possible that these compounds can inhibit Cdc42-mantGTP binding with GEF. […] These compounds appear to have activity like ZCL279. […] However, upon the addition of GEF, the compounds appear to facilitate the binding of mantGTP to Cdc42 (high assay slope, relative to ZCL278)
# GTP-bound (active) Cdc42 = target: T2, GTP-bound (active) Cdc42 (Mus musculus, UniProt P60766); assay: G-LISA in serum-starved Swiss 3T3 cells; format: cell-based; details: 50 μM
# T2 construct: endogenous in cells; host or cells: Swiss 3T3 cells
# T2 sequence (P60766 whole entry): as the sequence (P60953 whole entry, the tested form may be a part) above
# Experimental: G-LISA: G-LISA is an ELISA-based assay that allows a quantitative determination of the levels of GTP-bound (active) Cdc42 in cellular lysates. Swiss 3T3 cells (˜50% confluent) were starved for 24h then treated with ZCL278 (50 μM) for 0, 5, 10, 15, 30, or 60 m. Cells were lysed and G-LISA conducted according to Cytoskeleton G-LISA protocol. Briefly, ˜300 μL of lysis buffer was added, cells were scraped, transferred to a centrifuge tube, and centrifuged at 0° C. for 1 min at 13,200 rpm. Samples were flash frozen in liquid nitrogen. Approximately […] protein was loaded into duplicate wells for G-LISA. Absorbance was measured at 490 nm.
# 3×Tg-AD mice [1] = assay: Nesting test; format: in vivo; details: 3×Tg AD mouse model; 20 μg/g I.P. once a week, 4 weeks
# From the text: (§1) Six-month-old C57/BL6 (WT) and 3×Tg-AD mice with an average weight of 24 g from Jackson Laboratory (Bar Harbor, Maine, United States of America) were used. The 3×Tg-AD mice in hybrid 129/C57BL/6 background contain two mutant human transgenes, hAPP harboring Swedish mutation (hAPPswe) and mutant htau (htau301L) under a neuron-specific promoter, and also contain the knock-in mutant presenilin 1 (PS1M146V). See Oddo et al. (2003) Neuron 39:409-421). 3×Tg-AD mice were received from Jackson Laboratory as Psen1 B6:129-Psen1<tmMpm>Tg(APPSwetauP301L)1Lfa/J and the wild type control as SF2: (B6129SF1/J+p+Tyr-c+Mgf-SIJ)F2. All mice were subjected to two weeks of training for familiarizing behavioral test procedures. […]
# Nesting test: Similar to the burrowing test, 2.5 hours before the start of the dark cycle, mice were housed singly in cages containing one 5 cm square of pressed cotton (‘Nestlet’, which the mice normally received as part of their environmental enrichment) with which to make a nest. The condition of each nest was assessed after 2 hours, according to a four-point scale as follows: • 1=Nestlet not noticeably touched (>90% intact). • 2=Nestlet partially tom up (70-90% remaining intact). • 3=Mostly shredded but often no identifiable nest site (<50% remaining intact). • 4=An identifiable nest (<10% remaining intact).
# 3×Tg-AD mice [2] = assay: Morris water maze test; format: in vivo
# From the text: as §1, with “procedures. Subsequently, mice were assayed to establish a baseline of behavior tests before ZCL compound treatment. Then, mice were separated into three treatment groups (Control, ZCL278 and ZCL279).” for “procedures.”
# Mice were trained to swim to a 14 cm diameter circular clear Plexiglas platform submerged 1.5 cm beneath the surface of the water and invisible to the mice while swimming. […] Retention of the spatial training was assessed at 1.5 hr and again at 24 hr after the last training trial. […] Mice were monitored by a camera mounted in the ceiling directly above the pool, and all trials were stored on videotape for subsequent analysis.
SMILES,effect on Rac1 (Rac1),% ZCL278 (activator activity) (Cdc42) [%],"effect on GTP-bound (active) Cdc42 (GTP-bound (active) Cdc42; 0-60 m, serum-starved Swiss 3T3 cells)",time of Cdc42 activity peak (GTP-bound (active) Cdc42; another peak),time of Cdc42 activity peak (GTP-bound (active) Cdc42; first peak),instinctual behavior: nesting behavior (3×Tg-AD mice [1]),"spatial memory ability compared with WT mice (3×Tg-AD mice [2]; 3×Tg AD mice, Day 4)",spatial memory ability (latency in finding the submerged platform) (3×Tg-AD mice [2]; AD mouse model)
"Cc1cc(C)nc(NS(=O)(=O)c2ccc(NC(=S)NC(=O)COc3ccc(Br)cc3Cl)cc2)n1 [ZCL278, 4-(3-(2-(4-bromo-2-chloro-phenoxy)-acetyl)-thioureido)-N-(4,6-dimethylpyrimidin-2-yl)-benzenesulfonamide]",inhibits Rac1,100,activates Cdc42,about 60 min,Approximately 15 min,,,
"O=S(=O)(Nc1ccccc1O)c1ccc2oc3ccc(S(=O)(=O)Nc4ccccc4O)cc3c2c1 [ZCL279, N^2,N^8-bis(2-hydroxyphenyl)dibenzo[b,d]furan-2,8-disulfonamide]",,,,,,improve instinctual behavior,appeared similar to WT mice,improves spatial memory ability
